In publication PMC7370299, “Inhibition of Ovarian Cancer Cell Spheroid Formation by Synthetic Peptides Derived from Nectin-4” (International Journal of Molecular Sciences, 2020):

What was measured:
[1] = system: NIH:OVCAR5 cells; settings: 150 µg/mL peptide N4-P10 or 2 µg/mL puromycin, 250 nM Cytotox Green, 72 h, quadruplicate
Method: As a positive control for cytotoxicity, 2 µg/mL puromycin was used.

[2] = system: NIH:OVCAR5 cells; experiment: Initial screening of Nectin-4 peptides for spheroid formation, flat-bottom ultra-low attachment plates, manual photographs; type: cell-based, human; settings: peptide 150 µg/mL, 96-well flat-bottom ultra-low attachment plates, photographed at 24 and 48 h, 8 technical replicates, data not shown
Method: Twenty-one peptides of 14 amino acids in length encompassing the extracellular domain of Nectin-4 (Figure 2 and Table 1) were synthesized as previously described. The peptides were initially screened at a concentration of 150 µg/mL in 96-well flat-bottom ultra-low attachment plates to identify the section(s) of Nectin-4 that are active in ovarian cancer cell aggregation and spheroid formation. NIH:OVCAR5 cells and peptides were seeded into the plates and manually photographed at 24 and 48 h time points. […] However, the cells treated with the other 18 peptides produced spheroids that appeared to be similar in size to the untreated control cells.
For the initial screening of the twenty-one Nectin-4 peptides, 50 ul of the peptides at 300 µg/mL (for a final working concentration of 150 µg/mL peptide per well) in complete media were added to 96-well flat-bottom ultra-low attachment plates (Corning, Corning, NY, USA). DMSO was used as a negative control. Fifty microliters of NIH:OVCAR5 cells at a concentration of 1.0 × 10^5 cells/mL in complete media were added to each well. The plates were then incubated at 37 °C in 5% CO2 for 48 h, with photographs taken manually at 24 and 48 h on a Nikon® TE200 microscope. A single screening experiment was conducted with 8 technical replicates at each condition to determine which peptides had the most significant effect on spheroid formation.

[3] = system: NIH:OVCAR5 cells; experiment: Real-time spheroid formation, round-bottom ultra-low attachment plates, IncuCyte Zoom time-lapse, CellProfiler area; type: cell-based, human; settings: for inhibition of spheroid formation at 18 µg/mL: peptide 18 µg/mL; for effect on spheroid formation (spheroid size, time-lapse): 96-well round-bottom ultra-low attachment plates, IncuCyte Zoom, first 24 h, DMSO control; for spheroid contraction / compact spheroid formation, average spheroid area over time: quadruplicate; for cell-cell adhesion at early time points of spheroid formation: before ~6 h, time-lapse imaging
Method: (§1) Confluent monolayers of ovarian cancer cell lines (NIH:OVCAR5, N4-KD-VB9, or CAOV3) were detached from the tissue culture flasks using 0.05% Trypsin (ThermoFisher Scientific, Waltham, MA, USA) and resuspended at a concentration of 1.0 × 10^5 cells/mL in complete media. Each well of a 96-well round-bottom ultra-low attachment plate (Corning, Corning NY, USA) was seeded with 50 ul of the resulting suspension. In most cases, the experiments were conducted with eight technical replicates at each condition. The plates were then placed in the gantry of the IncuCyte® Zoom (Sartorius, Ann Arbor, MI, USA) live cell analysis system and incubated at 37 °C in 5% CO2 for 24–72 h, as indicated. Photographs were taken at ~15 min increments for a total of no less than 48 h for the NIH:OVCAR5 cell lines or up to 72 h for the CAOV3 cell line. The initial photographs (t = 0) were taken 10–25 min after the cells were plated, at which time the cells had gravitated to the bottom of the well and were initiating the cell–cell attachments. The resulting footage was analyzed to determine the change in the area of the spheroid aggregates over time. The images were binarized to black and white, and the sum of the area of the small aggregates (black objects) in pixels was determined via the CellProfiler^TM workflow described below. Each image was normalized to the same dimensions, so that the areas could be compared.
Experiments were then repeated using round-bottom ultra-low attachment plates in which the cells were added to the wells containing the peptides at a final concentration of 150 µg/mL. The plates were placed in the IncuCyte® Zoom instrument for 24-48 h of live cell imaging, as described above. Experiments with the peptides selected for further study were performed in triplicate, with 8–16 technical replicates at each treatment condition.
NIH:OVCAR5 cells were added to wells containing from 9 to 150 µg/mL of peptide N4-P10 or peptide N4-P10S, or DMSO control, and then the formation of spheroids was monitored via the IncuCyte® Zoom instrument. The resulting footage was analyzed with the CellProfiler^TM pipeline described below.
A simple four-step CellProfiler™ (open source, Broad Institute, www.cellprofiler.org) pipeline was used to delineate the biologically relevant image contents and to quantify the area of spheroids over time. As part of the CellProfiler™ workflow, cellular edges were enhanced using the Sobel method, the images were converted to binary via Otsu method thresholding, and the area of occupied pixels as a function of overall image size was recorded. The resulting values were exported for analysis and visualization in the R statistical programming language. The values were averaged and the mean with the standard error of the mean (SEM) was determined and graphed. Experiments were routinely performed with eight replicates for each condition, and repeated a minimum of two times on separate days. Since many photographs were taken during the course of each experiment (approximately every 15 min) and the SEM was very small, it is difficult to see the small error bars in the graphs. For this reason, the values for each experimental SEM were included in the figure legends.

[4] = system: CAOV3 cells; experiment: as above; type: cell-based, human; settings: peptide 150 µg/mL; for effect on spheroid formation of CAOV3 cells: round-bottom ultra-low attachment plates, 72 h, quadruplicate, DMSO control
Method: as §1
A simple four-step CellProfiler™ (open source, Broad Institute, www.cellprofiler.org) pipeline was used to delineate the biologically relevant image contents and to quantify the area of spheroids over time. As part of the CellProfiler™ workflow, cellular edges were enhanced using the Sobel method, the images were converted to binary via Otsu method thresholding, and the area of occupied pixels as a function of overall image size was recorded. The resulting values were exported for analysis and visualization in the R statistical programming language. The values were averaged and the mean with the standard error of the mean (SEM) was determined and graphed. […]

[5] = system: recombinant Nectin-1; settings: ovarian cancer cell adhesion to recombinant Nectin-1, short-term binding assay, previous study ref 15; cited from earlier work
Excerpt: In our previous study, peptides N4-P10 and N4-P22 both inhibited cell adhesion by approximately 50%; however, the inhibition of spheroid formation by these two peptides was more disparate, with peptide N4-P10 almost completely inhibiting spheroid formation. In contrast, ...

[6] = peptide 150 µg/mL, 24 h, versus DMSO control

Compound	cytotoxic effect (cell death, integrated fluorescence intensity) [1]	effect on formation of spheroids (initial screen) [2]	inhibition of spheroid formation at 18 µg/mL ([3]; 24 h, versus DMSO control)	effect on spheroid formation (spheroid size, time-lapse) ([3]; peptide 150 µg/mL)	spheroid contraction / compact spheroid formation, average spheroid area over time [3, 6]	cell-cell adhesion at early time points of spheroid formation ([3]; peptide 150 µg/mL)	effect on spheroid formation of CAOV3 cells [4]	inhibition of cell adhesion to Nectin-1 [5]	other results
COc1ccc(C[C@H](N)C(=O)N[C@H]2[C@@H](O)[C@H](n3cnc4c(N(C)C)ncnc43)O[C@@H]2CO)cc1 [puromycin, reference compound]	essentially all died within 24 h	–	–	–	–	–	–	–	–
QARLRLRVLVPPLP [N4-P10, Nectin-4 extracellular domain peptide, AA 138-151]	negligible	significantly impeded the formation of spheroids	marginal effect of inhibiting spheroid formation	most dramatic effect on spheroid formation	did not form compact spheroids	appeared to inhibit cell–cell adhesion	inhibited the spheroid formation of CAOV3 cells	approximately 50%	inhibition of spheroid formation at 37.5 to 150 µg/mL ([3]; peptide 37.5 to 150 µg/mL, 24 h): almost complete inhibition of spheroid formation; size / packing of CAOV3 multicellular aggregates ([4]; after 72 h of incubation, CellProfiler area): not as tightly packed as the spheroids that were formed in the presence of peptide N4-P10S or the DMSO control
RPVQLALPRLVRPL [N4-P10S, scrambled version of peptide N4-P10 used as a control peptide, reference compound]	–	–	no effect compared to the DMSO control	–	visually and quantitatively similar to that of the untreated controls	–	formed aggregates over 24 h that contracted into more compact spheroids after 72 h	–	change in formation of spheroids at any concentration ([3]; peptide 9-150 µg/mL, 24 h, versus DMSO control): no quantifiable change in the formation of spheroids compared with the control
WTRLDGPLPSGVRV [N4-P22, Nectin-4 extracellular domain peptide, AA 282-295]	–	significantly impeded the formation of spheroids	–	more modest inhibition of spheroid formation	–	appeared to inhibit cell–cell adhesion	–	approximately 50%	–
SGKQVDLVSASV [N4-P27, Nectin-4 peptide, AA 339-350, adjacent to membrane]	–	significantly impeded the formation of spheroids	–	significant impact on the formation of spheroids	–	–	–	did not inhibit ovarian cancer cell adhesion to recombinant Nectin-1	inhibition of spheroid formation compared to the control ([3]; peptide 150 µg/mL, spheroid area at 24 h): almost forty percent
EVKGTTSSRSFKHS [N4-P14, Nectin-4 extracellular domain peptide, AA 186-199]	–	–	–	no effect on spheroid formation	–	–	–	–	–
